Source: US9969709B2, “Guanidinobenzoic acid ester compound” (Takeda Pharmaceutical Company Limited, priority 2013, dated 2018)

Legend:
[1] = tested on: T1, mouse trypsin (m-trypsin); assay: Trypsin inhibitory activity, mouse trypsin purified from small intestine contents, BZiPAR fluorescent substrate; format: biochemical; details: 30 min at room temperature
T1 construct: mouse trypsin (m-trypsin)
Source text: 1. Confirmation of Trypsin Inhibitory Activity in Humans and Mice
In the experiment, human recombinant trypsin (rh-trypsin; manufactured by Wako Pure Chemical Industries, Ltd.), cat. #206-17171) and mouse trypsin (m-trypsin; purified from the mouse small intestine contents by the present inventors) were used. The method for purifying m-trypsin from the contents of the mouse small intestine is shown below.
The small intestine contents and the gastrointestinal tract obtained from 10 mice were homogenized in phosphate buffer saline (PBS) using Polytron, and subjected to centrifugation several times at 15,000×g for 10 minutes. The supernatant was mixed at 4° C. for 16 hours with a Benzamidine Sepharose 4 Fast Flow Resin (GE Healthcare: #17-5123-10). After washing the resin with PBS, m-trypsin was eluted with a glycine buffer (pH 3.0) to carry out purification. It was confirmed by Western blot analysis that the obtained purified fraction was recognized as an Anti-mouse Trypsin Antibody (Santa Cruz Biotechnology, Inc.: sc-67388). The method for measuring the trypsin inhibiting activity is shown below.
(§1) The compound was dissolved in dimethyl sulfoxide (DMSO), and diluted to an arbitrary concentration (A). A was 100-fold diluted with a buffer (0.1 M Tris (pH 8.0), 0.15 M NaCl, 10 mM CaCl2, 0.05% Brij35) (B). The rh-trypsin was diluted with a buffer to 0.088 μg/mL, and for the m-trypsin, the purified fraction liquid was 50-fold diluted with the buffer (C). […] A BZiPAR solution (Rhodamine Reference Substrate) which is substrate for the trypsin enzyme was diluted with the buffer to […] (D). 5 μL of B, 5 μL of C, and 10 μL of D were added to a 384-well plate, and incubated at room temperature for 30 minutes. Fluorescent signals were detected at a maximum excitement (Ex)/fluorescent wavelength (Em)=497 nm/520 nm using a Tecan Safire Fluorometer. […] Based on the obtained inhibitory rates, the trypsin inhibitory activities (IC50 values, nM) were calculated from the non-linear regression.

[2] = molecular target: T2, human recombinant trypsin (rh-trypsin) (Homo sapiens, UniProt P07477); assay: Trypsin inhibitory activity, human recombinant trypsin, BZiPAR fluorescent substrate; format: biochemical; details: 30 min at room temperature, read-out: r-h Trypsin inhibitory activity (IC50)
T2 construct: purchased Wako Pure Chemical Industries, Ltd. 206-17171
Description: as §1, with “1. Confirmation of Trypsin Inhibitory Activity in Humans and Mice In the experiment, human recombinant trypsin (rh-trypsin; manufactured by Wako Pure Chemical Industries, Ltd.), cat. #206-17171) and mouse trypsin (m-trypsin; purified from the mouse small intestine contents by the present inventors) were used. The method for purifying m-trypsin from the contents of the mouse small intestine is shown below. The compound” for “The compound”

ICR mice = assay: Test of increase in fecal protein concentration using mice; format: in vivo, mouse; details: 5 mg/kg oral, male ICR mice, feces collected 3 to 9 hours after feeding started, control group = 1; for response vs control in vivo at 5 mg/kg: Mus musculus, po, 9 h, read-out: Fecal protein, Folds (vs. control)
Description: 2. Test of Increase in Fecal Protein Concentration Using Mice
For the experiment, 6-week old male ICR mice were used. The experiment was carried out in five mice per group. After fasting the mice for 15 hours, the control group was forcibly orally administered with a 0.5% methyl cellulose (MC) solution, and the test drug group was forcibly orally administered (5 mg/kg) with a solution or suspension obtained by dissolving or suspending the compound in the 0.5% MC solution. The fasting was stopped immediately thereafter, free feeding (CE-2) was started, and then the feces were collected from after 3 hours to after 9 hours, and weighed. All of the obtained feces were suspended in 6 mL of distilled water, and centrifuged at 1,940×g for 10 minutes. The protein concentration in the obtained supernatant was measured by a Bradford method, and the amount of the protein in 1 g of feces was calculated by dividing the protein concentration in the feces by the total weight of feces. Further, the efficacy was investigated from the ratio to the control group. For the compounds that were evaluated multiple times, the average values were calculated.
The results of the activities with an increase in Fecal Protein, assuming a value for the control group as 1, are shown in Table 2.

| IC50 [1] [nM] | IC50 [2] [nM] | SMILES | response vs control in vivo at 5 mg/kg (ICR mice) [%] | Fecal protein, Folds (vs. control) (ICR mice) |
| --- | --- | --- | --- | --- |
| 0.13 | 0.18 | N=C(N)Nc1ccc(C(=O)Oc2ccc3cc(C(=O)N(CC(=O)O)[C@@H](Cc4ccccc4)C(=O)O)ccc3c2)cc1 [Example 39] | 108 | – |
| 0.24 | 0.23 | N=C(N)Nc1ccc(C(=O)Oc2ccc3c(c2)CCC(C(=O)N(CC(=O)O)Cc2ccc4sc(C(=O)O)cc4c2)C3)cc1 (stereo not drawn) [Example 24] | 151 | – |
| 0.27 | 0.29 | N=C(N)Nc1ccc(C(=O)Oc2ccc3c(C(=O)N(CC(=O)O)[C@@H](Cc4ccccc4)C(=O)O)cccc3c2)cc1 [Example 40] | 189 | – |
| 0.6 | 0.54 | N=C(N)Nc1ccc(C(=O)Oc2ccc3c(c2)CCC3CC(=O)N[C@@H](Cc2ccc(C(=O)O)cc2)C(=O)O)cc1 (stereo partly drawn) [Example 53] | 164 | – |
| 0.47 | 0.35 | N=C(N)Nc1ccc(C(=O)Oc2ccc3c(c2)CCCC3CC(=O)N(CCC(=O)O)Cc2csc(C(=O)O)c2)cc1 (stereo not drawn) [Example 55] | 230 | – |
| 0.59 | 0.35 | N=C(N)Nc1ccc(C(=O)Oc2ccc3cc(C(=O)N(CCC(=O)O)Cc4csc(C(=O)O)c4)ccc3c2)cc1 [Example 56] | 145 | – |
| 0.19 | 0.17 | N=C(N)Nc1ccc(C(=O)Oc2ccc3c(C(=O)N(CCC(=O)O)Cc4csc(C(=O)O)c4)cccc3c2)cc1 [Example 43] | 198 | – |
| 0.52 | 0.38 | C[C@H](C(=O)O)N(Cc1csc(C(=O)O)c1)C(=O)C1CCc2cc(OC(=O)c3ccc(NC(=N)N)cc3)ccc2C1 (stereo partly drawn) [Example 21] | 251 | – |
| 0.36 | 0.25 | N=C(N)Nc1ccc(C(=O)Oc2ccc3c(C(=O)N(CC(=O)O)Cc4csc(C(=O)O)c4)csc3c2)cc1 [Example 13] | 273 | – |
| 0.68 | 0.31 | N=C(N)Nc1ccc(C(=O)Oc2ccc3c(c2)CCC3CC(=O)N(CC(=O)O)Cc2cccc(C(=O)O)c2)cc1 (stereo not drawn) [Example 11] | 263 | – |
| 0.35 | 0.28 | N=C(N)Nc1ccc(C(=O)Oc2ccc3c(c2)CCCC3CC(=O)N(CC(=O)O)Cc2ccc3sc(C(=O)O)cc3c2)cc1 (stereo not drawn) [Example 25] | 135 | – |
| 0.22 | 0.23 | N=C(N)Nc1ccc(C(=O)Oc2ccc3c(c2)CCC(C(=O)N(CC(=O)O)[C@@H](Cc2ccccc2)C(=O)O)C3)cc1 (stereo partly drawn) [Example 31] | 151 | – |
| 0.46 | 0.29 | N=C(N)Nc1ccc(C(=O)Oc2ccc3c(C(=O)N(CCC(=O)O)Cc4csc(C(=O)O)c4)csc3c2)cc1 [Example 54] | 170 | – |
| 0.27 | 0.19 | N=C(N)Nc1ccc(C(=O)Oc2ccc3c(c2)CCCC3CC(=O)N(CC(=O)O)Cc2cccc(C(=O)O)c2)cc1 (single isomer, unassigned) [Example 5, 3-{[({(1R)-6-[(4-carbamimidamidobenzoyl)oxy]-1,2,3,4-tetrahydronaphthalen-1-yl}acetyl)(carboxymethyl)amino]methyl}benzoic acid or an enantiomer thereof] | 188 | – |
| 0.57 | 0.43 | C[C@H](C(=O)O)N(Cc1csc(C(=O)O)c1)C(=O)CC1CCCc2cc(OC(=O)c3ccc(NC(=N)N)cc3)ccc21 (single isomer, unassigned) [Example 8, 4-({({(1R)-6-[(4-carbamimidamidobenzoyl)oxy]-1,2,3,4-tetrahydronaphthalen-1-yl}acetyl) [(1R)-1-carboxyethyl]amino}methyl)thiophene-2-carboxylic acid or an epimer at position 1 of the 1,2,3,4-tetrahydronaphthalene] | – | 1.90 |
| 0.22 | 0.26 | N=C(N)Nc1ccc(C(=O)Oc2ccc3c(c2)CCCC3CC(=O)N(CC(=O)O)Cc2cccc(CC(=O)O)c2)cc1 (stereo not drawn) [Example 41] | 201 | – |
| 0.46 | 0.46 | N=C(N)Nc1ccc(C(=O)Oc2ccc3c(C(=O)N(CC(=O)O)Cc4ccc(CC(=O)O)cc4)csc3c2)cc1 [Example 23] | 253 | – |
| 0.28 | 0.25 | N=C(N)Nc1ccc(C(=O)Oc2ccc3c(c2)CCCC3CC(=O)N2Cc3cc(C(=O)O)ccc3C[C@@H]2C(=O)O)cc1 (stereo partly drawn) [Example 30] | 168 | – |
| 0.18 | 0.1 | N=C(N)Nc1ccc(C(=O)Oc2ccc3c(C(=O)N(CC(=O)O)Cc4cccc(C(=O)O)c4)cccc3c2)cc1 [Example 15] | 261 | – |
| 0.2 | 0.2 | N=C(N)Nc1ccc(C(=O)Oc2ccc3c(c2)CCCC3CC(=O)N(Cc2ccccc2)CC(CC(=O)O)CC(=O)O)cc1 (stereo not drawn) [Example 44] | 172 | – |
| 0.18 | 0.24 | N=C(N)Nc1ccc(C(=O)Oc2ccc3cc(C(=O)N[C@@H](Cc4ccc(C(=O)O)cc4)C(=O)O)ccc3c2)cc1 [Example 37] | 174 | – |
| 0.23 | 0.25 | N=C(N)Nc1ccc(C(=O)Oc2ccc3c(c2)CCC3CC(=O)N(CC(=O)O)[C@@H](Cc2ccccc2)C(=O)O)cc1 (stereo partly drawn) [Example 46] | 184 | – |
| 0.54 | 0.36 | N=C(N)Nc1ccc(C(=O)Oc2ccc3c(c2)CCC(C(=O)N(CCC(=O)O)Cc2csc(C(=O)O)c2)C3)cc1 (stereo not drawn) [Example 45] | 138 | – |
| 0.14 | 0.15 | N=C(N)Nc1ccc(C(=O)Oc2ccc3c(C(=O)N(CC(=O)O)Cc4ccc5sc(C(=O)O)cc5c4)csc3c2)cc1 [Example 32] | 190 | – |
| 0.34 | 0.33 | N=C(N)Nc1ccc(C(=O)Oc2ccc3c(c2)CCCC3CC(=O)N(CC(=O)O)Cc2ccc(CC(=O)O)cc2)cc1 (stereo not drawn) [Example 26] | 170 | – |
| 0.23 | 0.26 | N=C(N)Nc1ccc(C(=O)Oc2ccc3c(c2)CCCC3CC(=O)N(CC(=O)O)Cc2csc(CC(=O)O)c2)cc1 (stereo not drawn) [Example 38] | 191 | – |
| 0.6 | 0.39 | C[C@H](C(=O)O)N(Cc1csc(C(=O)O)c1)C(=O)CC1CCCc2cc(OC(=O)c3ccc(NC(=N)N)cc3)ccc21 (stereo partly drawn) [Example 19] | 251 | – |
| 0.38 | 0.34 | N=C(N)Nc1ccc(C(=O)Oc2ccc3c(c2)CCC3CC(=O)N(CC(=O)O)Cc2ccc3sc(C(=O)O)cc3c2)cc1 (stereo not drawn) [Example 51] | 166 | – |
